The results in this text go back to patent US9067977B2, “Peptides derivatized with A-B-C-D- and their therapeutical use” (Novo Nordisk A/S, priority 2007, dated 2015).

The structures appear in SMILES notation. Starred links: 1 amine or outer side, 2 acyl side, 3 side chain; linkers in the order of their positions; H or OH if unused. Non-standard residues stand in square brackets, D forms with d. Residues, ends and D or L forms follow the SMILES beside them. Groups on a side chain read outwards from the residue. *: point of attachment. X1 = O=C(CCCCCCCCCCCCCCCc1nnn[nH]1)NS(=O)(=O)CCCC(=O)*; PEG12 = NCCOCCOCCOCCOCCOCCOCCOCCOCCOCCOCCOCCOCCC(=O)O; γGlu = O=C(O)[C@H](CCC(=O)[*:2])N[*:1]; 12Ado = NCCCCCCCCCCCC(=O)O; AEEA = NCCOCCOCC(=O)O; Aib = CC(C)(N)C(=O)O; GABA = NCCCC(=O)O

The data set has as its target human serum albumin (HSA) (Homo sapiens, UniProt P02768). The data set is described as follows: Albumin binding affinity, competition scintillation proximity assay.

human serum albumin (HSA), sequence (P02768 25-609): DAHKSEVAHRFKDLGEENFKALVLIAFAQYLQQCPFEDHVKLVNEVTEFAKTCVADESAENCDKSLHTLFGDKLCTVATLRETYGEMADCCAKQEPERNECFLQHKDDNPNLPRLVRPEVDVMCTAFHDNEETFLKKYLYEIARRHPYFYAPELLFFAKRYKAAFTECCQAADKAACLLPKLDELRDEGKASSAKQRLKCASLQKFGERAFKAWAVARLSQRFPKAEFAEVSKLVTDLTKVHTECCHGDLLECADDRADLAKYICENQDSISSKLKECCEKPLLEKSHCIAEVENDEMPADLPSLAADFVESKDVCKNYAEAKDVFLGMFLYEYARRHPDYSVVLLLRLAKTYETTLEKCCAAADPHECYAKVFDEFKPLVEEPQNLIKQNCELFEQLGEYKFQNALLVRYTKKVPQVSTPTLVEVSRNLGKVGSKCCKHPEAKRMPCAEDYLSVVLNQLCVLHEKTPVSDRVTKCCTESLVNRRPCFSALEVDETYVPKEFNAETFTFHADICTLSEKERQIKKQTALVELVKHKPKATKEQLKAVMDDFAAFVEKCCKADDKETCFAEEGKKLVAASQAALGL
Experimental: Streptavidin-SPA beads (GE Healthcare RPNQ0009) were incubated with biotinylated HSA for 5 hours. The beads were washed with buffer to remove unbound HSA. […] After 20 hours of gentle rocking at room temperature the plates were centrifuged and counted on a TopCounter.

Molecule `CC[C@H](C)[C@H](NC(=O)[C@H](Cc1ccccc1)NC(=O)[C@H](CCC(=O)O)NC(=O)[C@H](CCCCNC(=O)COCCOCCNC(=O)COCCOCCNC(=O)COCCOCCNC(=O)COCCOCCNC(=O)COCCOCCNC(=O)COCCOCCNC(=O)CC[C@H](NC(=O)CC[C@H](NC(=O)CCCCCCCCCCCNC(=O)CCCS(=O)(=O)NC(=O)CCCCCCCCCCCCCCCc1nnn[nH]1)C(=O)O)C(=O)O)NC(=O)[C@H](C)NC(=O)[C@H](C)NC(=O)[C@H](CCC(N)=O)NC(=O)CNC(=O)[C@H](CCC(=O)O)NC(=O)[C@H](CC(C)C)NC(=O)[C@H](Cc1ccc(O)cc1)NC(=O)[C@H](CO)NC(=O)[C@H](CO)NC(=O)[C@@H](NC(=O)[C@H](CC(=O)O)NC(=O)[C@H](CO)NC(=O)[C@@H](NC(=O)[C@H](Cc1ccccc1)NC(=O)[C@@H](NC(=O)CNC(=O)[C@H](CCC(=O)O)NC(=O)C(C)(C)NC(=O)[C@@H](N)Cc1c[nH]cn1)[C@@H](C)O)[C@@H](C)O)C(C)C)C(=O)N[C@@H](C)C(=O)N[C@@H](Cc1c[nH]c2ccccc12)C(=O)N[C@@H](CC(C)C)C(=O)N[C@H](C(=O)N[C@@H](CCCNC(=N)N)C(=O)NCC(=O)N[C@@H](CCCNC(=N)N)C(N)=O)C(C)C` [Example 45, N-epsilon26-[2-(2-{2-[2-(2-{2-[2-(2-{2-[2-(2-{2-[2-(2-{2-[2-(2-{2-[(S)-4-Carboxy-4-((S)-4-carboxy-4-{12-[4-(16-(1H-tetrazol-5-yl)hexadecanoylsulfamoyl)butyrylamino]dodecanoylamino}butyrylamino)butyrylamino]ethoxy}ethoxy)acetylamino]ethoxy}ethoxy)acetylamino]ethoxy}ethoxy)acetylamino]ethoxy}ethoxy)acetylamino]ethoxy}ethoxy)acetylamino]ethoxy}ethoxy)acetyl][Aib8,Lys26,Arg34]GLP-1-(7-36)amide] showed an EC50 of 100 to 150 nM.
In turn, `CC[C@H](C)[C@H](NC(=O)[C@H](Cc1ccccc1)NC(=O)[C@H](CCC(=O)O)NC(=O)[C@H](CCCNC(=N)N)NC(=O)[C@H](C)NC(=O)[C@H](C)NC(=O)[C@H](CCC(N)=O)NC(=O)[C@H](CCC(=O)O)NC(=O)[C@H](CCC(=O)O)NC(=O)[C@H](CC(C)C)NC(=O)[C@H](Cc1ccc(O)cc1)NC(=O)[C@H](CO)NC(=O)[C@H](CO)NC(=O)[C@@H](NC(=O)[C@H](CC(=O)O)NC(=O)[C@H](CO)NC(=O)[C@@H](NC(=O)[C@H](Cc1ccccc1)NC(=O)[C@@H](NC(=O)CNC(=O)[C@H](CCC(=O)O)NC(=O)C(C)(C)NC(=O)[C@@H](N)Cc1c[nH]cn1)[C@@H](C)O)[C@@H](C)O)C(C)C)C(=O)N[C@@H](C)C(=O)N[C@@H](Cc1c[nH]c2ccccc12)C(=O)N[C@@H](CC(C)C)C(=O)N[C@H](C(=O)N[C@@H](CCCNC(=N)N)C(=O)NCC(=O)N[C@@H](CCCNC(=N)N)C(=O)NCC(=O)N[C@@H](CCCCNC(=O)COCCOCCNC(=O)CC[C@H](NC(=O)CC[C@H](NC(=O)CCCCCCCCCCCNC(=O)CCCS(=O)(=O)NC(=O)CCCCCCCCCCCCCCCc1nnn[nH]1)C(=O)O)C(=O)O)C(N)=O)C(C)C` [Example 46, [Aib8,Glu22,Arg26,Arg34]GLP-1-(7-37)Lys[2-(2-{2-[(S)-4-Carboxy-4-((S)-4-carboxy-4-{12-[4-(16-(1H-tetrazol-5-yl)hexadecanoylsulfamoyl)butyrylamino]dodecanoylamino}-butyrylamino)butyrylamino]ethoxy}ethoxy)acetyl]amide] (H-H[Aib]EGTFTSDVSSYLEEQAAREFIAWLVRGRGK([AEEA-γGlu-γGlu-12Ado-X1])-NH2) gave an EC50 of 1 to 100 nM.
Still for that read-out and setting: the same measure for `CC[C@H](C)[C@H](NC(=O)[C@H](Cc1ccccc1)NC(=O)[C@H](CCC(=O)O)NC(=O)[C@H](CCCNC(=N)N)NC(=O)[C@H](C)NC(=O)[C@H](C)NC(=O)[C@H](CCC(N)=O)NC(=O)[C@H](CCC(=O)O)NC(=O)[C@H](CCC(=O)O)NC(=O)[C@H](CC(C)C)NC(=O)[C@H](Cc1ccc(O)cc1)NC(=O)[C@H](CO)NC(=O)[C@H](CO)NC(=O)[C@@H](NC(=O)[C@H](CC(=O)O)NC(=O)[C@H](CO)NC(=O)[C@@H](NC(=O)[C@H](Cc1ccccc1)NC(=O)[C@@H](NC(=O)CNC(=O)[C@H](CCC(=O)O)NC(=O)C(C)(C)NC(=O)[C@@H](N)Cc1c[nH]cn1)[C@@H](C)O)[C@@H](C)O)C(C)C)C(=O)N[C@@H](C)C(=O)N[C@@H](Cc1c[nH]c2ccccc12)C(=O)N[C@@H](CC(C)C)C(=O)N[C@H](C(=O)N[C@@H](CCCNC(=N)N)C(=O)NCC(=O)N[C@@H](CCCNC(=N)N)C(=O)N[C@@H](CCCCNC(=O)COCCOCCNC(=O)CC[C@H](NC(=O)CC[C@H](NC(=O)CCCCCCCCCCCNC(=O)CCCS(=O)(=O)NC(=O)CCCCCCCCCCCCCCCc1nnn[nH]1)C(=O)O)C(=O)O)C(N)=O)C(C)C` [Example 48, N-epsilon37-[2-(2-{2-[(S)-4-Carboxy-4-((S)-4-carboxy-4-{12-[4-(16-(1H-tetrazol-5-yl)hexadecanoylsulfamoyl)butyrylamino]dodecanoylamino}butyrylamino)butyrylamino]ethoxy}ethoxy)acetyl][Aib8,Glu22,Arg26,Arg34,Lys37]GLP-1-(7-37)amide]: 800 to 2000 nM.
Still for that read-out and setting: as for `CC[C@H](C)[C@H](NC(=O)[C@H](Cc1ccccc1)NC(=O)[C@H](CCC(=O)O)NC(=O)[C@H](CCCNC(=N)N)NC(=O)[C@H](C)NC(=O)[C@H](C)NC(=O)[C@H](CCC(N)=O)NC(=O)CNC(=O)[C@H](CCC(=O)O)NC(=O)[C@H](CC(C)C)NC(=O)[C@H](Cc1ccc(O)cc1)NC(=O)[C@H](CO)NC(=O)[C@H](CO)NC(=O)[C@@H](NC(=O)[C@H](CC(=O)O)NC(=O)[C@H](CO)NC(=O)[C@@H](NC(=O)[C@H](Cc1ccccc1)NC(=O)[C@@H](NC(=O)CNC(=O)[C@H](CCC(=O)O)NC(=O)[C@H](C)NC(=O)CCc1c[nH]cn1)[C@@H](C)O)[C@@H](C)O)C(C)C)C(=O)N[C@@H](C)C(=O)N[C@@H](Cc1c[nH]c2ccccc12)C(=O)N[C@@H](CC(C)C)C(=O)N[C@H](C(=O)N[C@@H](CCCNC(=N)N)C(=O)NCC(=O)N[C@@H](CCCNC(=N)N)C(=O)N[C@@H](CCCCNC(=O)COCCOCCNC(=O)CC[C@H](NC(=O)CC[C@H](NC(=O)CCCCCCCCCCCNC(=O)CCCS(=O)(=O)NC(=O)CCCCCCCCCCCCCCCc1nnn[nH]1)C(=O)O)C(=O)O)C(N)=O)C(C)C` [Example 50], the figure is 1 to 100 nM.
As for `CC[C@H](C)[C@H](NC(=O)[C@H](Cc1ccccc1)NC(=O)[C@H](CCC(=O)O)NC(=O)[C@H](CCCNC(=N)N)NC(=O)[C@H](C)NC(=O)[C@H](C)NC(=O)[C@H](CCC(N)=O)NC(=O)[C@H](CCC(=O)O)NC(=O)[C@H](CCC(=O)O)NC(=O)[C@H](CC(C)C)NC(=O)[C@H](Cc1ccc(O)cc1)NC(=O)[C@H](CO)NC(=O)[C@H](CO)NC(=O)[C@@H](NC(=O)[C@H](CC(=O)O)NC(=O)[C@H](CO)NC(=O)[C@@H](NC(=O)[C@H](Cc1ccccc1)NC(=O)[C@@H](NC(=O)CNC(=O)[C@H](CCC(=O)O)NC(=O)C(C)(C)NC(=O)[C@@H](N)Cc1c[nH]cn1)[C@@H](C)O)[C@@H](C)O)C(C)C)C(=O)N[C@@H](CCC(=O)O)C(=O)N[C@@H](Cc1c[nH]c2ccccc12)C(=O)N[C@@H](CC(C)C)C(=O)N[C@H](C(=O)N[C@@H](CCCCN)C(=O)NCC(=O)N[C@@H](CCCNC(=N)N)C(=O)N1CCC[C@H]1C(=O)N[C@@H](CCCCNC(=O)COCCOCCNC(=O)CC[C@H](NC(=O)CC[C@H](NC(=O)CCCNC(=O)CCCS(=O)(=O)NC(=O)CCCCCCCCCCCCCCCc1nnn[nH]1)C(=O)O)C(=O)O)C(=O)O)C(C)C` [Example 51, [Aib8,Glu22,Arg26,Glu30,Pro37]GLP-1-(7-37)Lys [2-(2-{2-[4-Carboxy-4-(4-carboxy-4-{4-[4-(16-1H-tetrazol-5-yl-hexadecanoylsulfamoyl)butyrylamino]butyrylamino}butyrylamino)butyrylamino]ethoxy}ethoxy)acetyl]] (H-H[Aib]EGTFTSDVSSYLEEQAAREFIEWLVKGRPK([AEEA-γGlu-γGlu-GABA-X1])-OH), the EC50 at 20 h (human, biotinylated human serum albumin on streptavidin-SPA beads, pH 7.4) lay in the range of 150 to 300 nM.
Consider `CC[C@H](C)[C@H](NC(=O)[C@H](Cc1ccccc1)NC(=O)[C@H](CCC(=O)O)NC(=O)[C@H](CCCNC(=N)N)NC(=O)[C@H](C)NC(=O)[C@H](C)NC(=O)[C@H](CCC(N)=O)NC(=O)[C@H](CCC(=O)O)NC(=O)[C@H](CCC(=O)O)NC(=O)[C@H](CC(C)C)NC(=O)[C@H](Cc1ccc(O)cc1)NC(=O)[C@H](CO)NC(=O)[C@H](CO)NC(=O)[C@@H](NC(=O)[C@H](CC(=O)O)NC(=O)[C@H](CO)NC(=O)[C@@H](NC(=O)[C@H](Cc1ccccc1)NC(=O)[C@@H](NC(=O)CNC(=O)[C@H](CCC(=O)O)NC(=O)C(C)(C)NC(=O)[C@@H](N)Cc1c[nH]cn1)[C@@H](C)O)[C@@H](C)O)C(C)C)C(=O)N[C@@H](CCC(=O)O)C(=O)N[C@@H](Cc1c[nH]c2ccccc12)C(=O)N[C@@H](CC(C)C)C(=O)N[C@H](C(=O)N[C@@H](CCCCN)C(=O)NCC(=O)N[C@@H](CCCNC(=N)N)C(=O)N1CCC[C@H]1C(=O)N[C@@H](CCCCNC(=O)CCOCCOCCOCCOCCOCCOCCOCCOCCOCCOCCOCCOCCNC(=O)CC[C@H](NC(=O)CC[C@H](NC(=O)CCCNC(=O)CCCS(=O)(=O)NC(=O)CCCCCCCCCCCCCCCc1nnn[nH]1)C(=O)O)C(=O)O)C(=O)O)C(C)C` [Example 52] (H-H[Aib]EGTFTSDVSSYLEEQAAREFIEWLVKGRPK([PEG12-γGlu-γGlu-GABA-X1])-OH), for which the EC50 fell in the range of 300 to 800 nM.
